Data from US11420944B2, “Voltage-dependent t-type calcium channel blocker” (Nippon Chemiphar Co., Ltd., priority 2016, dated 2022).
Where two headings read alike, the source gives them in different places.

Experiments:
human Cav3.2 channels [1] = target: T1, human Cav3.2 channels (Homo sapiens, UniProt O95180); assay: Intracellular calcium concentration measurement (Fluo-4 AM) in stable cells expressing human Cav3.2 channels, buffer A / buffer B; type: cell-based
T1 construct: expressed in transfected cells; host or cells: HEK293 cells (ATCC No. CRL-1573), plasmid pcDNA3.1(+)
T1 sequence (O95180 whole entry): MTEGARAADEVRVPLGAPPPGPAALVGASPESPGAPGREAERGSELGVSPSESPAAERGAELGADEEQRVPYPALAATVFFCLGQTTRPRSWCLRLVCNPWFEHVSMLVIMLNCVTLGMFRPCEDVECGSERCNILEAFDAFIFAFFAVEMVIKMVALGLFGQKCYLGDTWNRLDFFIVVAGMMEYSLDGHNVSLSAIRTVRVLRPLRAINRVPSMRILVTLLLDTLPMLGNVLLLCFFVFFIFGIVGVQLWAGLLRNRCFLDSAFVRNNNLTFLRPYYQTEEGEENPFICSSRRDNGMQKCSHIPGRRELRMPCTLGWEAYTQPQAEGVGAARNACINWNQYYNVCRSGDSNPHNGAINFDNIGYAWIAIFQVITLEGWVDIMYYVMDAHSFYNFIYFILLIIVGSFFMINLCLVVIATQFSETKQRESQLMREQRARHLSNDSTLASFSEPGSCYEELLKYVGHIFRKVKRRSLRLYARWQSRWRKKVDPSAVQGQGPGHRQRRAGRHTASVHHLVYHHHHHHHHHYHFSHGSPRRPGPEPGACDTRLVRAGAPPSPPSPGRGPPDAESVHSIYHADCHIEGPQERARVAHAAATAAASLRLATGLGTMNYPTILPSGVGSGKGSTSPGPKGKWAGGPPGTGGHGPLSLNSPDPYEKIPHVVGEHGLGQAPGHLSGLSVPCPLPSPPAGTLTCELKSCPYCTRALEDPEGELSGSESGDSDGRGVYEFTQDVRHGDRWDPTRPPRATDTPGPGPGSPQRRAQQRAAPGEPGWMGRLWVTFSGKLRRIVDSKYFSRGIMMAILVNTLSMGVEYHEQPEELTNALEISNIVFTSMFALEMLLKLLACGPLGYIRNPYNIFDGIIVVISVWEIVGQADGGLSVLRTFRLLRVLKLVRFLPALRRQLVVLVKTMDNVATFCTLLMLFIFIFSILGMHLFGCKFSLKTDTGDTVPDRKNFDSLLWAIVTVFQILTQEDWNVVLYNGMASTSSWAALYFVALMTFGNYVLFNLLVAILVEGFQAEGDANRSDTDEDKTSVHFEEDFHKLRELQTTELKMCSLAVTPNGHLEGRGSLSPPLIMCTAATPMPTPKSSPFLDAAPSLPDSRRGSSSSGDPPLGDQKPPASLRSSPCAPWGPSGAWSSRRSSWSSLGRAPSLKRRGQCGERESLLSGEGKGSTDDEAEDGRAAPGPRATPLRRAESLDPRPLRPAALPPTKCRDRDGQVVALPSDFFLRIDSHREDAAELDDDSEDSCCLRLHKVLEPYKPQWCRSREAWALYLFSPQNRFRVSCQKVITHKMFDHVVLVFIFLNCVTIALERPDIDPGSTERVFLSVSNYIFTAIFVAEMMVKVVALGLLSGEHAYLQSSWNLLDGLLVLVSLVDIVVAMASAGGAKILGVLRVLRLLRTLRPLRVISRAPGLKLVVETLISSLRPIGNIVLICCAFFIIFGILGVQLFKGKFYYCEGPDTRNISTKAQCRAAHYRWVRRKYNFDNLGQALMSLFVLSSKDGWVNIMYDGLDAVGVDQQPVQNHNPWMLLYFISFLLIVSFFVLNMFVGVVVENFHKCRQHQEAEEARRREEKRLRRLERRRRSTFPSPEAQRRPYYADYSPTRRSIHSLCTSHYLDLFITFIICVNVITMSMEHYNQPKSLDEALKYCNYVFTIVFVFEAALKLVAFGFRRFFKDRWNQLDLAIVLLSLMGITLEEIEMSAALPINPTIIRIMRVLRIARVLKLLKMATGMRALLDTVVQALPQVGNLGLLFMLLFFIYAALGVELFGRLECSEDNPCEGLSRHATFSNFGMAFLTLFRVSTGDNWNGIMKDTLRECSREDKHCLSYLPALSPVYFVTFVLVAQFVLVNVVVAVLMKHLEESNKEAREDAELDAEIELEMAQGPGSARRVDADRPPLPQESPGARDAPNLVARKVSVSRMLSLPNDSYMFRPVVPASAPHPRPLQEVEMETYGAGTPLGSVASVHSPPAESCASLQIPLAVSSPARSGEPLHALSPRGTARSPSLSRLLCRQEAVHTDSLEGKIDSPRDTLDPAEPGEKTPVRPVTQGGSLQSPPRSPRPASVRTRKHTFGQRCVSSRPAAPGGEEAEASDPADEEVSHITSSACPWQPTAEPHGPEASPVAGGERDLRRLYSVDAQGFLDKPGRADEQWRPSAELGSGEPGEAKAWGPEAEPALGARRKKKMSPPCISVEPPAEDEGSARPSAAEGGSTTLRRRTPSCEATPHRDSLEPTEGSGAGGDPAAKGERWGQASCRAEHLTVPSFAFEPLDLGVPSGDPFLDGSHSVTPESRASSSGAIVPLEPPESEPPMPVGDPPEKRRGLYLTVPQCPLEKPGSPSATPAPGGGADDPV
In short: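 HEK293 cells stably expressing human Cav3.2, Fluo-4 loaded, preincubated 15 min at room temperature with compound (0.1% DMSO final) in buffer A (K+ equilibrium −92 mV) or B (−110 mV). After ionophore, KCl (83.8 or 91.8 mM) stimulus; 10 s fluorescence rise (ex 485/em 510 nm) gave % inhibition and IC50.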

human Cav3.2 channels [2] = target: T1, human Cav3.2 channels; assay: Electrophysiological evaluation, whole-cell patch-clamp with automatic patch-clamp system; type: cell-based; details: for inhibition at 0.3 µM: holding potential −80 mV, read-out: Cav3.2 channel current inhibition ratio at 0.3 μM of test compound (holding potential −80 mV)
Procedure: Electrophysiological Evaluation
Stable cell line expressing human Cav3.2 channels, which had been produced by Test method (1) of Example 140, was seeded in a 10-cm dish using DMEM medium containing 10% FBS, and the cells were cultured for 24 hours or longer under the conditions of 37° C. and 5% CO2. The cells were detached using Accutase and were used after being suspended in ice-cold extracellular solution. The Cav3.2 channel current was measured by the Whole-cell patch-clamp method using an automatic patch-clamp system (Port-a-Patch; Nanion Technologies GmbH, EPC-10; HEKA Elektronik GmbH, Patchmaster; HEKA Elektronik GmbH) and buffers described below. Measurement of the Cav3.2 channel current was carried out at room temperature, and the measurement conditions were set as follows: holding potential: −80 mV, depolarization potential: −20 mV, depolarization time: 100 msec, and depolarization frequency: 10 sec. The Cav3.2 channel current was defined as the peak value of the inward current observed when depolarization occurred at −20 mV.
For a test compound, a DMSO solution was diluted 1,000 times with extracellular solution, and thus a solution having an intended concentration was produced. The test compound was applied using an extracellular perfusion system (Nanion Technologies GmbH) until the Cav3.2 channel current was stabilized, and five concentrations at the maximum from the low-concentration side were cumulatively applied. The inhibition ratio of the test compound was calculated from the current value immediately before the application of the test compound and the change rate of the Cav3.2 channel current after the application of the test compound (conditions for a holding potential of −80 mV: test compound concentration of 0.3 μM, conditions for a holding potential of −100 mV: test compound concentration of 3 μM).
Extracellular solution: 135 mM NaCl, 4 mM KCl, 1 mM MgCl2, 5 mM CaCl2, 5 mM D-Glucose, and 10 mM HEPES, pH 7.4
Internal solution for electrode: 10 mM NaCl, 10 mM HEPES, 50 mM CsCl, 60 mM CsF, and 20 mM EGTA, pH 7.2

[3] = Tables 2 to 6, buffer A, equilibrium potential of potassium −92 mV, read-out: Inhibitory action of buffer A (inactivated state)
[4] = Table 1, buffer A, equilibrium potential of potassium −92 mV, read-out: Inhibitory action of buffer A (inactivated state)
[5] = Table 1, buffer B, equilibrium potential of potassium −110 mV, read-out: Inhibitory action of buffer B (resting state or closed state)

Compound	IC50 (human Cav3.2 channels [1]; [3]) [nM]	inhibition at 0.3 µM (human Cav3.2 channels [2]) [%]	IC50 (human Cav3.2 channels [1]; [4]) [nM]	IC50 (human Cav3.2 channels [1]; [5]) [nM]	Cav3.2 channel current inhibition ratio at 3 μM of test compound (holding potential −100 mV) (human Cav3.2 channels [2]) [%]
C[C@@H](NC(=O)C1CC1c1nc(-c2ccccn2)c[nH]1)c1ccc(OCC(F)(F)F)s1 (mixture of isomers) [Example 39, Trans-2-(4-(pyridin-2-yl)-1H-imidazol-2-yl)-N—((R)-1-(5-(2,2,2-trifluoroethoxy)thiophen-2-yl)ethyl)cyclopropane-1-carboxamide]	100 to 1000	50			
C[C@@H](NC(=O)C1CC1c1nc2ccccc2[nH]1)c1cnc(OCC(F)(F)F)s1 (single isomer, unassigned) [Example 8A]		1	100 to 1000	> 10000	13
C[C@@H](NC(=O)C1CC1c1ccc2ccccc2n1)c1ccc(OCC(F)(F)F)s1 (single isomer, unassigned) [Example 34A]	100 to 1000	58			
C[C@@H](NC(=O)C1CC1c1c[nH]c2ccccc12)c1cnc(OCC(F)(F)F)s1 (single isomer, unassigned) [Example 49]	≤ 100	35			
C[C@@H](NC(=O)C1CC1c1ncc2ccccn12)c1cc2cc(F)ccc2o1 (single isomer, unassigned) [Example 117A]	100 to 1000	70			
C[C@@H](NC(=O)[C@@H]1CCN(CC(=O)Nc2ccccc2)C1)c1ccc(OCC(F)(F)F)s1.Cl [Example 17, hydrochloride]		64	100 to 1000	1000 to 10000	
C[C@@H](NC(=O)[C@H]1C[C@@H]1c1nc2ccccc2[nH]1)c1ccc(C(=O)OC(C)(C)C)s1 [Example 25A, Trans-5-((1R)-1-(2-(1H-benzo[d]imidazol-2-yl)cyclopropane-1-carboxamido)ethyl)thiophene-2-carboxylic acid tert-butyl ester]	100 to 1000	59			54
CC(C)[C@@H](NC(=O)[C@H]1C[C@@H]1c1nc2ccccc2[nH]1)c1ccc(C(F)(F)F)s1 [Example 50, (1S,2S)-2-(1H-benzo[d]imidazol-2-yl)-N—((R)-2-methyl-1-(5-(trifluoromethyl)thiophen-2-yl)propyl)cyclopropane-1-carboxamide]	100 to 1000	43			
Cc1nc(OCC(F)(F)F)sc1[C@@H](C)NC(=O)[C@H]1C[C@@H]1c1nc2ccccc2[nH]1 [Example 51, (1S,2S)-2-(1H-benzo[d]imidazol-2-yl)-N—((R)-1-(4-methyl-2-(2,2,2-trifluoroethoxy)thiazol-5-yl)ethyl)cyclopropane-1-carboxamide]	100 to 1000	33			
C[C@@H](NC(=O)[C@H]1C[C@@H]1c1nc2ccccc2[nH]1)c1ccc2ccccc2n1 [Example 52, (1S,2S)-2-(1H-benzo[d]imidazol-2-yl)-N—((R)-1-(quinolin-2-yl)ethyl)cyclopropane-1-carboxamide]	100 to 1000	36			
C[C@@H](NC(=O)[C@H]1C[C@@H]1c1nc2ccccc2[nH]1)c1ccc(C(=O)N(C)c2ccc(F)cc2)s1 [Example 62, Trans-5-((1R)-1-(2-(1H-benzo[d]imidazol-2-yl)cyclopropane-1-carboxamido)ethyl)-N-(4-fluorophenyl)-N-methylthiophene-2-carboxamide]	100 to 1000	34			
C[C@@H](NC(=O)[C@H]1C[C@@H]1c1nc2ccccc2[nH]1)c1cc2cc(F)ccc2s1 [Example 66, (1S,2S)-2-(1H-benzo[d]imidazol-2-yl)-N—((R)-1-(5-fluorobenzo[b]thiophen-2-yl)ethyl)cyclopropane-1-carboxamide]	≤ 100	81			
C[C@@H](NC(=O)[C@H]1C[C@@H]1c1nc2ccccc2[nH]1)c1ccc2c(c1)OC(F)(F)O2 [Example 73, (1S,2S)-2-(1H-benzo[d]imidazol-2-yl)-N—((R)-1-(2,2-difluorobenzo[d][1,3]dioxol-5-yl)ethyl)cyclopropane-1-carboxamide]	100 to 1000	50			
C[C@@H](NC(=O)[C@H]1C[C@@H]1c1nc2ccccc2[nH]1)c1cc2ccccc2o1 [Example 76, (1S,2S)-2-(1H-benzo[d]imidazol-2-yl)-N—((R)-1-(benzofuran-2-yl)ethyl)cyclopropane-1-carboxamide]	100 to 1000	49			
C[C@@H](NC(=O)[C@H]1C[C@@H]1c1nc2ccccc2[nH]1)c1ccc2c(c1)CCO2 [Example 78, (1S,2S)-2-(1H-benzo[d]imidazol-2-yl)-N—((R)-1-(2,3-dihydrobenzofuran-5-yl)ethyl)cyclopropane-1-carboxamide]	100 to 1000	49			
C[C@@H](NC(=O)[C@H]1C[C@@H]1c1nc2ccccc2[nH]1)c1cc2cc(Cl)ccc2o1 [Example 82, (1S,2S)-2-(1H-benzo[d]imidazol-2-yl)-N—((R)-1-(5-chlorobenzofuran-2-yl)ethyl)cyclopropane-1-carboxamide]	≤ 100	88			
C[C@@H](NC(=O)[C@H]1C[C@@H]1c1nc2ccccc2[nH]1)c1cc2cc(F)cc(F)c2o1 [Example 88, (1S,2S)-2-(1H-benzo[d]imidazol-2-yl)-N—((R)-1-(5,7-difluorobenzofuran-2-yl)ethyl)cyclopropane-1-carboxamide]	≤ 100	37			
C[C@@H](NC(=O)[C@H]1C[C@@H]1c1nc2ccccc2[nH]1)c1cc2ccccn2n1 [Example 93, (1S,2S)-2-(1H-benzo[d]imidazol-2-yl)-N—((R)-1-(pyrazolo[1,5-a]pyridin-2-yl)ethyl)cyclopropane-1-carboxamide]	1000 to 10000	22			
Cc1c([C@@H](C)NC(=O)[C@H]2C[C@@H]2c2nc3ccccc3[nH]2)oc2ccc(F)cc12 [Example 101, (1S,2S)-2-(1H-benzo[d]imidazol-2-yl)-N—((R)-1-(5-fluoro-3-methylbenzofuran-2-yl)ethyl)cyclopropane-1-carboxamide]	≤ 100	73			
C[C@@H](NC(=O)[C@H]1C[C@@H]1c1nc2cc(F)ccc2[nH]1)c1ccc(OCC(F)(F)F)s1 [Example 118, (1S,2S)-2-(5-fluoro-1H-benzo[d]imidazol-2-yl)-N—((R)-1-(5-(2,2,2-trifluoroethoxy)thiophen-2-yl)ethyl)cyclopropane-1-carboxamide]	≤ 100				
C[C@@H](NC(=O)[C@H]1C[C@@H]1c1nc2ccccc2[nH]1)c1cc2ccc(F)cc2s1 [Example 119, (1S,2S)-2-(1H-benzo[d]imidazol-2-yl)-N—((R)-1-(6-fluorobenzo[b]thiophen-2-yl)ethyl)cyclopropane-1-carboxamide]	≤ 100				
CC(C)[C@@H](NC(=O)[C@H]1C[C@@H]1c1nc2ccccc2[nH]1)c1cc2ccc(F)cc2s1 [Example 120, (1S,2S)-2-(1H-benzo[d]imidazol-2-yl)-N—((R)-1-(6-fluorobenzo[b]thiophen-2-yl)-2-methylpropyl)cyclopropane-1-carboxamide]	100 to 1000				
C[C@@H](NC(=O)[C@@H]1CCN(c2ccc(C(F)(F)F)cn2)C1)c1cc2cc(F)ccc2o1 [Example 121, (R)—N—((R)-1-(5-fluorobenzofuran-2-yl)ethyl)-1-(5-(trifluoromethyl)pyridin-2-yl)pyrrolidine-3-carboxamide]	> 10000				
C[C@@H](NC(=O)[C@@H]1CCN(c2nc3ccccc3s2)C1)c1cc2cc(F)ccc2o1 [Example 126, (R)-1-(benzo[d]thiazol-2-yl)-N—((R)-1-(5-fluorobenzofuran-2-yl)ethyl)pyrrolidine-3-carboxamide]	100 to 1000				
O=C(NC1(c2cc3cc(F)ccc3o2)CC1)[C@H]1C[C@@H]1c1nc2ccccc2[nH]1 [Example 128, (1S,2S)-2-(1H-benzo[d]imidazol-2-yl)-N-(1-(5-fluorobenzofuran-2-yl)cyclopropyl)cyclopropane-1-carboxamide]	100 to 1000				
C[C@@H](NC(=O)C1CC1c1nc2ccccc2[nH]1)c1cnc(OCC(F)(F)F)cn1 (some centres unmarked) [RQ-00311651, reference compound]		17			14
